Drawing on patent publication US12134620B2 (ARAXES PHARMA LLC, priority 2018, dated 2024), this text covers Binding % for 18 compounds.

This assay concerns the target T1, KRAS G12C 1-169, his-tagged protein, GDP-loaded (Homo sapiens, UniProt P01116, G12C).
T1 construct: KRAS G12C 1-169, his-tagged protein, GDP-loaded; His tag
Put plainly: Biochemical assay: covalent modification of KRAS G12C, analysed by mass spectrometry (RapidFire/TOF or Q-Exactive). It counts as binding. The conditions noted are these: Modification activity, modification percentage from MS peak intensities. As for the experimental part: Test compounds are prepared as 10 mM stock solutions in DMSO (Fisher cat. #BP-231-100). KRAS G12C 1-169, his-tagged protein, GDP-loaded is diluted to 2 μM or 0.5 μM in buffer (20 mM Hepes, 150 mM NaCl, 1 mM MgCl2). Compounds are tested for activity as follows:
Compounds are diluted to 50× final test concentration in DMSO in 96-well storage plates. Compound stock solutions are vortexed before use and observed carefully for any sign of precipitation. Dilutions are as follow: • For 32 μM final compound concentration, compounds are diluted to 1600 μM (3 μL 10 mM compound stock+15.75 μL DMSO and mixed well by pipetting. • For 8 μM final compound concentration, compounds are diluted to 400 μM (2 μL 10 mM compound stock+48 μL DMSO) and mixed well by pipetting. 49 μL of the stock protein solution is added to each well of a 96-well PCR plate (Fisher cat #1423027). 1 μl of the diluted 50× compounds are added to appropriate wells in the PCR plate using 12-channel pipettor. Reactions are mixed carefully and thoroughly by pipetting up/down with a 200 μL multi-channel pipettor. The plate is sealed well with aluminum plate seal, and protein and compound are allowed to react for a desired amount of time. 5 μL of 2% formic acid (Fisher cat #A117) in de-ionized H2O is then added to each well followed by mixing with a pipette to quench the reaction. The plate is then resealed with aluminum seal and stored frozen on dry ice until analyzed as described below.
The above described assays are analyzed by mass spectrometry according to one of the following two procedures:
The MS instrument is set to positive polarity, 2 GHz resolution, and low mass (1700) mode and allowed to equilibrate for 30 minutes. The instrument is then calibrated, switched to acquisition mode and the appropriate method loaded.
After another 30 minute equilibration time, a blank batch (i.e., buffer) is run to ensure equipment is operating properly. The samples are thawed at 37° C. for 10 minutes, briefly centrifuged, and transfer to the bench top. Wells A1 and H12 are spiked with 1 μL 500 μM internal standard peptide, and the plates centrifuged at 2000×g for 5 minutes. The method is then run and masses of each individual well recorded.
The masses (for which integration data is desired) for each well are pasted into the platemap and exported from the analysis. Masses for the internal standards are exported as well. The data at 50 ppm is extracted for the +19 charge state, and identity of well A1 is assigned using the internal standard spike and integrated. Peak data is exported as a TOF list and the above steps are repeated individually, for the +20, +21, +22, +23, +24, and +25 charge states.
The masses and peak intensities of KRAS G12C protein species are measured using a Dionex RSLCnano system (Thermo Scientific) connected to a Q Exactive Plus mass spectrometer (Thermo Scientific).
20 μL of sample is each loaded onto a Aeris™ 3.6 μm WIDEPORE C4 200 Å, LC Column 50×2.1 mm column maintained at 40° C. at a flow rate of 600 μL/min with 80% Solvent A (0.1% formic acid in H2O) and 20% Solvent B (0.1% formic acid in acetonitrile). The liquid chromatography conditions are 20% solvent B for 1 minute, 20% to 60% solvent B for 1.5 minutes, 60% to 90% solvent for 0.5 minute, 90% solvent B for 0.2 minute, 90% to 20% solvent B for 0.2 minute, and then equilibrated for 1.6 minute before the following sample injection. The flow rate is maintained at 600 μL/min throughout the sample analysis.
The mass spectrometer is operated in profile mode at a resolution of 17500, 5 microscans, using 50 msec max injection time and an AGC target of 1×10^6, and a full mass range from 800-1850 m/z is recorded. The intact protein mode is applied for optimal ion transfer and maximum sensitivity. The ionization method is electrospray ionization, which used a spray voltage of 4 kV, sheath gas flow set to 50 AU, auxiliary gas flow set to 10 AU and sweep gas flow set to 1 AU. […]
Take `C=CC(=O)N1CC2(CCN(c3nc(N4CCCC4)nc(-c4c(C)ccc5[nH]ncc45)c3C#N)C2)C1` [Compound I-1, 4-(2-acryloyl-2,6-diazaspiro[3.4]octan-6-yl)-6-(5-methyl-1H-indazol-4-yl)-2-(pyrrolidin-1-yl)pyrimidine-5-carbonitrile]: the Binding % result was “+++ (+++ indicates binding activity greater than 85%)”.
With `C=CC(=O)N1CC2(CCN(c3nc(OC[C@@H]4CCCN4C)nc(-c4c(C)ccc5[nH]ncc45)c3C#N)C2)C1` [Compound I-2, 4-(2-acryloyl-2,6-diazaspiro[3.4]octan-6-yl)-6-(5-methyl-1H-indazol-4-yl)-2-(((S)-1-methylpyrrolidin-2-yl)methoxy)pyrimidine-5-carbonitrile] the entry was “+++ (+++ indicates binding activity greater than 85%)”; with `C=CC(=O)N1CC2(CCN(c3nc(N4CCOCC4)nc(-c4c(C)ccc5[nH]ncc45)c3C#N)C2)C1` [Compound I-3, 4-(2-acryloyl-2,6-diazaspiro[3.4]octan-6-yl)-6-(5-methyl-1H-indazol-4-yl)-2-morpholinopyrimidine-5-carbonitrile], “+++ (+++ indicates binding activity greater than 85%)”.
For the compound `C=CC(=O)N1CC2(CCN(c3nc(N4CC(N(C)C)C4)nc(-c4c(C)ccc5[nH]ncc45)c3C#N)C2)C1` [Compound I-4, 4-(2-acryloyl-2,6-diazaspiro[3.4]octan-6-yl)-2-(3-(dimethylamino)azeti-din-1-yl)-6-(5-methyl-1H-indazol-4-yl)pyrimidine-5-carbonitrile], the Binding % result is listed as “+++ (+++ indicates binding activity greater than 85%)”.
The entry for `C=CC(=O)N1CC2(CCN(c3nc(OCCCN(C)C)nc(-c4c(C)ccc5[nH]ncc45)c3C#N)C2)C1` [Compound I-5, 4-(2-acryloyl-2,6-diazaspiro[3.4]octan-6-yl)-2-(3-(dimethylamino)pro-poxy)-6-(5-methyl-1H-indazol-4-yl)pyrimidine-5-carbonitrile] is “+++ (+++ indicates binding activity greater than 85%)”; for `C=CC(=O)N1CC2(CCN(c3nc(OC[C@H]4CCCN4C)nc(-c4c(C)ccc5[nH]ncc45)c3C#N)C2)C1` [Compound I-6, 4-(2-acryloyl-2,6-diazaspiro[3.4]octan-6-yl)-6-(5-methyl-1H-indazol-4-yl)-2-(((R)-1-methylpyrrolidin-2-yl)methoxy)pyrimidine-5-carbonitrile] it is “+++ (+++ indicates binding activity greater than 85%)”; for `C=CC(=O)N1CC2(CCN(c3nc(OCCc4ccccn4)nc(-c4c(C)ccc5[nH]ncc45)c3C#N)C2)C1` [Compound I-8, 4-(2-acryloyl-2,6-diazaspiro[3.4]octan-6-yl)-6-(5-methyl-1H-indazol-4-yl)-2-(2-(pyridin-2-yl)ethoxy)pyrimidine-5-carbonitrile] it is “+++ (+++ indicates binding activity greater than 85%)”.
Take `C=CC(=O)N1CC2(CCN(c3nc(C#N)nc(-c4c(C)ccc5[nH]ncc45)c3C#N)C2)C1` [Compound I-10, 4-(2-acryloyl-2,6-diazaspiro[3.4]octan-6-yl)-6-(5-methyl-1H-indazol-4-yl)pyrimidine-2,5-dicarbonitrile]: the Binding % entry is given as “++ (++ indicates binding activity from 50 to 85%)”.
As for `C=CC(=O)N1CC2(CCN(c3nc(-n4ccnc4)nc(-c4c(C)ccc5[nH]ncc45)c3C#N)C2)C1` [Compound I-11, 4-(2-acryloyl-2,6-diazaspiro[3.4]octan-6-yl)-2-(1H-imidazol-1-yl)-6-(5-methyl-1H-indazol-4-yl)pyrimidine-5-carbonitrile], the Binding % result is listed as “+++ (+++ indicates binding activity greater than 85%)”.
The entry for `C=CC(=O)N1CC2(CCN(c3nc(OCCN4CCCC4)nc(-c4c(C)ccc5[nH]ncc45)c3C#N)C2)C1` [Compound I-12, 4-(2-acryloyl-2,6-diazaspiro[3.4]octan-6-yl)-6-(5-methyl-1H-indazol-4-yl)-2-(2-(pyrrolidin-1-yl)ethoxy)pyrimidine-5-carbonitrile] is “++ (++ indicates binding activity from 50 to 85%)”.
With `C=CC(=O)N1CC2(CCN(c3nc(OC[C@@H]4CCCN4C)nc(N4CCCC(O)C4)c3C#N)C2)C1` (stereo partly drawn) [Compound I-13, 4-(2-acryloyl-2,6-diazaspiro[3.4]octan-6-yl)-6-(3-hydroxypiperidin-1-yl)-2-(((S)-1-methylpyrrolidin-2-yl)methoxy)pyrimidine-5-carbonitrile] the entry was “+ (+ indicates binding activity greater than 0% and up to 50%)”; with `C=CC(=O)N1CC2(CCN(c3nc(OCCc4ncccn4)nc(-c4c(C)ccc5[nH]ncc45)c3C#N)C2)C1` [Compound I-14, 4-(2-acryloyl-2,6-diazaspiro[3.4]octan-6-yl)-6-(5-methyl-1H-indazol-4-yl)-2-(2-(pyrimidin-2-yl)ethoxy)pyrimidine-5-carbonitrile], “++ (++ indicates binding activity from 50 to 85%)”; with `C=CC(=O)N1CC2(CCN(c3nc(OCc4ccccn4)nc(-c4c(C)ccc5[nH]ncc45)c3C#N)C2)C1` [Compound I-15, 4-(2-acryloyl-2,6-diazaspiro[3.4]octan-6-yl)-6-(5-methyl-1H-indazol-4-yl)-2-(pyridin-2-ylmethoxy)pyrimidine-5-carbonitrile], “+++ (+++ indicates binding activity greater than 85%)”.
The entry for `C=CC(=O)N1CC2(CCN(c3nc(OC[C@@H]4CCCN4C)nc(-c4ccccc4C(F)(F)F)c3C#N)C2)C1` [Compound I-16, (S)-4-(2-acryloyl-2,6-diazaspiro[3.4]octan-6-yl)-2-((1-methylpyrrolidin-2-yl)methoxy)-6-(2-(trifluoromethyl)phe-nyl)pyrimidine-5-carbonitrile] is “+ (+ indicates binding activity greater than 0% and up to 50%)”; for `C=CC(=O)N1CC2(CCN(c3nc(OC[C@@H]4CCCN4C)nc(-c4cccc5c4OC(F)(F)O5)c3C#N)C2)C1` [Compound I-17, (S)-4-(2-acryloyl-2,6-diazaspiro[3.4]octan-6-yl)-6-(2,2-difluorobenzo[d][1,3]dioxol-4-yl)-2-((1-methylpyrrolidin-2-yl)methoxy)pyrimidine-5-carbonitrile] it is “+ (+ indicates binding activity greater than 0% and up to 50%)”; for `C=CC(=O)N1CC2(CCN(c3nc(OC[C@@H]4CCCN4C)nc(NCc4cccnc4)c3C#N)C2)C1` [Compound I-18, (S)-4-(2-acryloyl-2,6-diazaspiro[3.4]octan-6-yl)-2-((1-methylpyrrolidin-2-yl)methoxy)-6-((pyridin-3-ylmethyl)amino)pyri-midine-5-carbonitrile] it is “+ (+ indicates binding activity greater than 0% and up to 50%)”.
With `C=CC(=O)N1CC2(CCN(c3nc(Oc4cnn(C)c4)nc(-c4c(C)ccc5[nH]ncc45)c3C#N)C2)C1` [Compound I-19, 4-(2-acryloyl-2,6-diazaspiro[3.4]octan-6-yl)-6-(5-methyl-1H-indazol-4-yl)-2-((1-methyl-1H-pyrazol-4-yl)oxy)pyrimidine-5-carbonitrile], the Binding % result is “++ (++ indicates binding activity from 50 to 85%)”.
For `C=CC(=O)N1CC2(CCN(c3nc(OCCN4CCCC4=O)nc(-c4c(C)ccc5[nH]ncc45)c3C#N)C2)C1` [Compound I-20, 4-(2-acryloyl-2,6-diazaspiro[3.4]octan-6-yl)-6-(5-methyl-1H-indazol-4-yl)-2-(2-(2-oxopyrrolidin-1-yl)ethoxy)pyrimidine-5-carbonitrile], the Binding % result is reported as “++ (++ indicates binding activity from 50 to 85%)”.
